EC50 data for 28 compounds are collected here from patent publication US20240262832A1, “SMALL MOLECULE MODULATORS OF GLUCOCEREBROSIDASE ACTIVITY AND USES THEREOF” (Vanqua Bio, Inc., priority 2021, published 2024).

This test concerns the target T1, GCase (Homo sapiens, UniProt P04062).
T1 construct: endogenous in cells; host or cells: HeLa cells
T1 sequence (P04062 40-536): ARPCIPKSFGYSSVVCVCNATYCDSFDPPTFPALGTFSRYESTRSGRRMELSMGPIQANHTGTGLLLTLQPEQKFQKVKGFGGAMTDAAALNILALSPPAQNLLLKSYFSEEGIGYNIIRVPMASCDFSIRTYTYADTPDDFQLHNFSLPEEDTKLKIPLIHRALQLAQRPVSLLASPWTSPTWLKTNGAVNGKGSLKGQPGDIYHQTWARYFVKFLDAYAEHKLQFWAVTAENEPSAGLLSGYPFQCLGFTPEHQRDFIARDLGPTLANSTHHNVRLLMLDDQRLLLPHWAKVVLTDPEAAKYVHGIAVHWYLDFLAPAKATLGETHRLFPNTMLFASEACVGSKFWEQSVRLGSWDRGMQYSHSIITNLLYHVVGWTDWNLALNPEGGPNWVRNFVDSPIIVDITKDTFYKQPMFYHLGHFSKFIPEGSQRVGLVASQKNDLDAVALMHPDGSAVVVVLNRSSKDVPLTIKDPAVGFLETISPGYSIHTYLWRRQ
In words: activation of GCase in a live cell PFB assay in HELA cells. In kind it is cell-based.
What is called EC50 is the concentration giving half of the maximal effect. Read a high EC50 as lower potency in that assay. `C[C@@H]1CC[C@H](COc2cncc(C(F)(F)F)c2)CN1c1cnc2cnn(CC(F)F)c2n1` [Compound 273, 1-(2,2-Difluoroethyl)-6-((2R,5S)-2-methyl-5-(((5-(trifluoromethyl)pyridin-3-yl)oxy)methyl)piperidin-1-yl)-1H-pyrazolo[3,4-b]pyrazine] registered an EC50 of 10 to 50 µM. In the case of `C[C@@H]1CC[C@H](COc2cnccc2C(F)(F)F)CN1c1cnc2cnn(CC(F)F)c2n1` [Compound 274, 1-(2,2-Difluoroethyl)-6-((2R,5S)-2-methyl-5-(((4-(trifluoromethyl)pyridin-3-yl)oxy)methyl)piperidin-1-yl)-1H-pyrazolo[3,4-b]pyrazine], the 50% effective concentration (EC50) is < 10 µM. Consider `C[C@@H]1CC[C@H](COc2ccc(C(F)(F)F)cn2)CN1c1cnc2cnn(CC(F)F)c2n1` [Compound 275, 1-(2,2-Difluoroethyl)-6-((2R,5S)-2-methyl-5-(((5-(trifluoromethyl)pyridin-2-yl)oxy)methyl)piperidin-1-yl)-1H-pyrazolo[3,4-b]pyrazine], for which the EC50 was > 100 µM.

On to `C[C@@H]1CC[C@H](COc2cc(C(F)(F)F)ccn2)CN1c1cnc2cnn(CC(F)F)c2n1` [Compound 276, 1-(2,2-Difluoroethyl)-6-((2R,5S)-2-methyl-5-(((4-(trifluoromethyl)pyridin-2-yl)oxy)methyl)piperidin-1-yl)-1H-pyrazolo[3,4-b]pyrazine], for which the EC50 lay in the range of 50 to 100 µM.

`C[C@@H]1CC[C@H](COc2ncccc2C(F)(F)F)CN1c1cnc2cnn(CC(F)F)c2n1` [Compound 277, 1-(2,2-Difluoroethyl)-6-((2R,5S)-2-methyl-5-(((3-(trifluoromethyl)pyridin-2-yl)oxy)methyl)piperidin-1-yl)-1H-pyrazolo[3,4-b]pyrazine] yielded an EC50 of 10 to 50 µM. `C[C@@H]1CC[C@H](COc2ccnc(C(F)(F)F)c2)CN1c1cnc2cnn(CC(F)F)c2n1` [Compound 278, 1-(2,2-Difluoroethyl)-6-((2R,5S)-2-methyl-5-(((2-(trifluoromethyl)pyridin-4-yl)oxy)methyl)piperidin-1-yl)-1H-pyrazolo[3,4-b]pyrazine] gave an EC50 of 10 to 50 µM. For the compound `O=C(N1CCCC(COc2ccccc2)C1)C1(c2cnc(-c3ccccc3)s2)CCOCC1` (stereo not shown) [Compound 279, (3-(Phenoxymethyl)piperidin-1-yl)(4-(2-phenylthiazol-5-yl)tetrahydro-2H-pyran-4-yl)methanone], the EC50 is < 10 µM. With `Cc1ccccc1OCC1CCCN(C(=O)[C@@H]2CCc3nccc(=O)n32)C1` (stereo partly drawn) [Compound 280, (6S)-6-(3-((o-Tolyloxy)methyl)piperidine-1-carbonyl)-7,8-dihydropyrrolo[1,2-a]pyrimidin-4(6H)-one], the EC50 was > 100 µM. With `C[C@@H]1C[C@H](COc2cccnc2C(F)(F)F)CN(c2cnc3cnn(CC45CC(C4)C5)c3n2)C1` [Compound 281, 1-(Bicyclo[1.1.1]pentan-1-ylmethyl)-6-((3R,5S)-3-methyl-5-(((2-(trifluoromethyl)pyridin-3-yl)oxy)methyl)piperidin-1-yl)-1H-pyrazolo[3,4-b]pyrazine], the EC50 was < 10 µM. As to `C[C@@H]1CC[C@H](COc2ccncc2C(F)(F)F)CN1c1cnc2cnn(CC(F)F)c2n1` [Compound 282, 1-(2,2-Difluoroethyl)-6-((2R,5S)-2-methyl-5-(((3-(trifluoromethyl)pyridin-4-yl)oxy)methyl)piperidin-1-yl)-1H-pyrazolo[3,4-b]pyrazine], the 50% effective concentration (EC50) is < 10 µM.

The compound `FC(F)Cn1ncc2ncc(N3CC4CC4(COc4cccc(C(F)(F)F)n4)C3)nc21` (stereo not shown) [Compound 284, 3-[1-(2,2-Difluoroethyl)-1H-Pyrazolo[3,4-b]Pyrazin-6-Yl]-1-({[6-(Trifluoromethyl)Pyridin-2-Yl]Oxy}Methyl)-3-Azabicyclo[3.1.0]Hexane] yielded an EC50 of 10 to 50 µM.

In the case of `FC(F)Cn1ncc2ncc(N3CC4CC4(COc4cc(C(F)(F)F)ccn4)C3)nc21` (stereo not shown) [Compound 285, 3-[1-(2,2-Difluoroethyl)-1H-pyrazolo[3,4-b]pyrazin-6-yl]-1-({[4-(trifluoromethyl)pyridin-2-yl]oxy}methyl)-3-azabicyclo[3.1.0]hexane], the EC50 was 10 to 50 µM. Regarding `Cn1c(-c2ccc(F)cn2)nc2ncc(N3C[C@@H]4[C@@H](COc5cc(F)cc(F)c5)[C@@H]4C3)nc21` [Compound 286, 6-((1R,5S,6r)-6-((3,5-Difluorophenoxy)methyl)-3-azabicyclo[3.1.0]hexan-3-yl)-2-(5-fluoropyridin-2-yl)-1-methyl-1H-imidazo[4,5-b]pyrazine], the half-maximal effective concentration (EC50) was > 100 µM.

For the compound `CCn1c(=O)n(CC)c2nc(N3C[C@@H](C)C[C@@H](COc4cccnc4C(F)(F)F)C3)cnc21` [Compound 288a, 1,3-Diethyl-5-((3S,5R)-3-methyl-5-(((2-(trifluoromethyl)pyridin-3-yl)oxy)methyl)piperidin-1-yl)-1,3-dihydro-2H-imidazo[4,5-b]pyrazin-2-one], the EC50 was < 10 µM. Turning to `CCn1c(=O)n(CC)c2nc(N3C[C@@H](C)C[C@H](COc4cccnc4C(F)(F)F)C3)cnc21` [Compound 288b, 1,3-Diethyl-5-((3S,5S)-3-methyl-5-(((2-(trifluoromethyl)pyridin-3-yl)oxy)methyl)piperidin-1-yl)-1,3-dihydro-2H-imidazo[4,5-b]pyrazin-2-one], the EC50 lay in the range of 10 to 50 µM. As for `CN(CC1CCCN(c2ncccc2C(F)(F)F)C1)c1cnc2cnn(CC(F)F)c2n1` (stereo not shown) [Compound 289, 1-(2,2-Difluoroethyl)-N-methyl-N-((1-(3-(trifluoromethyl)pyridin-2-yl)piperidin-3-yl)methyl)-1H-pyrazolo[3,4-b]pyrazin-6-amine], the EC50 was < 10 µM. In turn, `FC(F)(F)c1ccc2sc([C@H]3[C@@H]4CN(c5cnc6cnn(C7COC7)c6n5)C[C@@H]43)nc2c1` [Compound 290, 2-((1R,5S,6r)-3-(1-(Oxetan-3-yl)-1H-pyrazolo[3,4-b]pyrazin-6-yl)-3-azabicyclo[3.1.0]hexan-6-yl)-5-(trifluoromethyl)benzo[d]thiazole] returned an EC50 of 10 to 50 µM. Turning to `COC1CC(COc2cccnc2C(F)(F)F)CN(c2cnc3cnn(CC(F)F)c3n2)C1` (stereo not shown) [Compound 291, 1-(2,2-Difluoroethyl)-6-(3-methoxy-5-(((2-(trifluoromethyl)pyridin-3-yl)oxy)methyl)piperidin-1-yl)-1H-pyrazolo[3,4-b]pyrazine], the EC50 was < 10 µM. In turn, `Cc1ccccc1OCC1CCCN(C(=O)c2cnn3c(-c4ccccc4)ccc(F)c23)C1` (stereo not shown) [Compound 292, (4-Fluoro-7-phenylpyrazolo[1,5-a]pyridin-3-yl)(3-((o-tolyloxy)methyl)piperidin-1-yl)methanone] had an EC50 of 10 to 50 µM. The value for `COCC1CCC(COc2cccnc2C(F)(F)F)CN1c1cnc2cnn(CC(F)F)c2n1` (stereo not shown) [Compound 295, 1-(2,2-Difluoroethyl)-6-(2-(methoxymethyl)-5-(((2-(trifluoromethyl)pyridin-3-yl)oxy)methyl)piperidin-1-yl)-1H-pyrazolo[3,4-b]pyrazine] was < 10 µM; that for `Cc1ccccc1OCC1CCCN(C(=O)c2cnn3c(-c4ccccc4C#N)ccc(F)c23)C1` (stereo not shown) [Compound 296, 2-(4-Fluoro-3-(3-((o-tolyloxy)methyl)piperidine-1-carbonyl)pyrazolo[1,5-a]pyridin-7-yl)benzonitrile] was < 10 µM; that for `C[C@@H]1C[C@H](CN(C)C23CC(C2)C3)CN(c2cnc3cnn(CC(F)F)c3n2)C1` [Compound 297] was 10 to 50 µM. For `CO[C@@H]1CCN(c2cnc3cnn(CC(F)F)c3n2)C[C@@H]1COc1cccnc1C(F)(F)F` [Compound 298a, 1-(2,2-Difluoroethyl)-6-((3R,4R)-4-methoxy-3-(((2-(trifluoromethyl)pyridin-3-yl)oxy)methyl)piperidin-1-yl)-1H-pyrazolo[3,4-b]pyrazine] the value was 50 to 100 µM; for `FC(F)Cn1ncc2ncc(N3C[C@H](COc4cccnc4C(F)(F)F)C[C@H](OC(F)F)C3)nc21` [Compound 299a, 1-(2,2-Difluoroethyl)-6-((3S,5R)-3-(difluoromethoxy)-5-(((2-(trifluoromethyl)pyridin-3-yl)oxy)methyl)piperidin-1-yl)-1H-pyrazolo[3,4-b]pyrazine], 10 to 50 µM. `FC(F)Cn1ncc2ncc(N3C[C@H](COc4cccnc4C(F)(F)F)C[C@@H](OC(F)F)C3)nc21` [Compound 299b, 1-(2,2-Difluoroethyl)-6-((3R,5R)-3-(difluoromethoxy)-5-(((2-(trifluoromethyl)pyridin-3-yl)oxy)methyl)piperidin-1-yl)-1H-pyrazolo[3,4-b]pyrazine]: the EC50 was < 10 µM. For `O=c1cc(-c2ccccc2)cc(N2CCC[C@H](COc3cccnc3C(F)(F)F)C2)[nH]1` [Compound 300, (S)-4-Phenyl-6-(3-(((2-(trifluoromethyl)pyridin-3-yl)oxy)methyl)piperidin-1-yl)pyridin-2(1H)-one], the EC50 is 10 to 50 µM.

Consider `O=c1[nH]c(N2CCC[C@H](COc3cccnc3C(F)(F)F)C2)cc2c1cnn2CC(F)F` [Compound 306, (S)-1-(2,2-difluoroethyl)-6-(3-(((2-(trifluoromethyl)pyridin-3-yl)oxy)methyl)piperidin-1-yl)-1,5-dihydro-4H-pyrazolo[4,3-c]pyridin-4-one], for which the EC50 was > 100 µM. The value for `O=C(c1ccc2cc[nH]c2c1)N1CCC(Oc2cncc(C(F)(F)F)c2)CC1` [Compound 307, (1H-Indol-6-yl)(4-((5-(trifluoromethyl)pyridin-3-yl)oxy)piperidin-1-yl)methanone] was 10 to 50 µM.
